Measured values reported in ChEMBL document CHEMBL3044662, “Synthesis and potential antibacterial activity of new rhodanine-3-acetic acid derivatives” (2013).
Values after ≈ are worked out from the molar mass of the structure shown.

How the values were obtained:
Format in all cases: functional
Staphylococcus aureus [1] = experiment: Antibacterial activity against quinolene-resistant Staphylococcus aureus CCARM 3505 clinical isolate assessed as growth inhibition after 20 hr by two-fold serial dilution method; conditions: CCARM 3505, 20 h
Escherichia coli [2] = experiment: Antibacterial activity against Escherichia coli CCARM 1356 assessed as growth inhibition after 20 hr by two-fold serial dilution method; conditions: CCARM 1356, 20 h
Staphylococcus aureus [3] = experiment: Antibacterial activity against methicillin-resistant Staphylococcus aureus CCARM 3167 clinical isolate assessed as growth inhibition after 20 hr by two-fold serial dilution method; conditions: CCARM 3167, 20 h
Staphylococcus aureus [4] = experiment: Antibacterial activity against Staphylococcus aureus subsp. aureus RN4220 assessed as growth inhibition after 20 hr by two-fold serial dilution method; conditions: RN4220, 20 h
Staphylococcus aureus [5] = experiment: Antibacterial activity against quinolene-resistant Staphylococcus aureus CCARM 3519 clinical isolate assessed as growth inhibition after 20 hr by two-fold serial dilution method; conditions: CCARM 3519, 20 h
Escherichia coli [6] = experiment: Antibacterial activity against Escherichia coli CCARM 1924 assessed as growth inhibition after 20 hr by two-fold serial dilution method; conditions: CCARM 1924, 20 h
Staphylococcus aureus [7] = experiment: Antibacterial activity against methicillin-resistant Staphylococcus aureus CCARM 3506 clinical isolate assessed as growth inhibition after 20 hr by two-fold serial dilution method; conditions: CCARM 3506, 20 h
Staphylococcus aureus [8] = experiment: Antibacterial activity against Staphylococcus aureus KCTC 503 assessed as growth inhibition after 20 hr by two-fold serial dilution method; conditions: KCTC 503, 20 h

SMILES	MIC (Staphylococcus aureus [1]) [µg/mL]	MIC (Escherichia coli [2]) [µg/mL]	MIC (Staphylococcus aureus [3]) [µg/mL]	MIC (Staphylococcus aureus [4]) [µg/mL]	MIC (Staphylococcus aureus [5]) [µg/mL]	MIC (Escherichia coli [6]) [µg/mL]	MIC (Staphylococcus aureus [7]) [µg/mL]	MIC (Staphylococcus aureus [8]) [µg/mL]
CCn1cc(C(=O)O)c(=O)c2cc(F)c(N3CCNCC3)cc21 [NORFLOXACIN]	> 64	16 (≈ 50.1 µM)	8 (≈ 25.1 µM)	2 (≈ 6.26 µM)	> 64	16 (≈ 50.1 µM)	4 (≈ 12.5 µM)	2 (≈ 6.26 µM)
N#Cc1ccc(COc2ccc3cc(/C=C4\SC(=S)N(CC(=O)O)C4=O)ccc3c2)cc1	–	> 64	–	> 64	–	> 64	–	> 64
O=C(O)CN1C(=O)/C(=C/c2ccc3cc(OCc4ccccc4Br)ccc3c2)SC1=S	–	> 64	–	> 64	–	> 64	–	> 64
O=C(O)CN1C(=O)/C(=C/c2ccc3cc(OCc4cccc(C(F)(F)F)c4)ccc3c2)SC1=S	–	> 64	–	> 64	–	> 64	–	> 64
O=C(O)CN1C(=O)/C(=C/c2ccc3cc(OCc4c(Cl)cccc4Cl)ccc3c2)SC1=S	–	> 64	–	> 64	–	> 64	–	> 64
O=C(O)CN1C(=O)/C(=C/c2ccc3cc(OCc4ccccc4Cl)ccc3c2)SC1=S	–	> 64	–	> 64	–	> 64	–	> 64
O=C(O)CN1C(=O)/C(=C/c2ccc3cc(OCc4cccc(F)c4)ccc3c2)SC1=S	–	> 64	–	> 64	–	> 64	–	> 64
N#Cc1ccccc1COc1ccc2cc(/C=C3\SC(=S)N(CC(=O)O)C3=O)ccc2c1	–	> 64	–	> 64	–	> 64	–	> 64
Cc1onc(-c2ccccc2)c1C(=O)N[C@@H]1C(=O)N2[C@@H]1SC(C)(C)[C@@H]2C(=O)O [OXACILLIN]	1 (≈ 2.49 µM)	> 64	> 64	1 (≈ 2.49 µM)	1 (≈ 2.49 µM)	> 64	> 64	1 (≈ 2.49 µM)
COc1cccc(COc2ccc3cc(/C=C4\SC(=S)N(CC(=O)O)C4=O)ccc3c2)c1	–	> 64	–	> 64	–	> 64	–	> 64
COc1ccc(COc2ccc3cc(/C=C4\SC(=S)N(CC(=O)O)C4=O)ccc3c2)cc1	–	> 64	2 (≈ 4.3 µM)	4 (≈ 8.59 µM)	8 (≈ 17.2 µM)	> 64	2 (≈ 4.3 µM)	8 (≈ 17.2 µM)
CN(C)c1ccc(COc2ccc3cc(/C=C4\SC(=S)N(CC(=O)O)C4=O)ccc3c2)cc1	> 64	> 64	> 64	64 (≈ 134 µM)	> 64	> 64	> 64	64 (≈ 134 µM)
O=C(O)CN1C(=O)/C(=C/c2ccc3cc(OCc4cccc(Cl)c4)ccc3c2)SC1=S	–	> 64	–	> 64	–	> 64	–	> 64
O=C(O)CN1C(=O)/C(=C/c2ccc3cc(O)ccc3c2)SC1=S	–	> 64	–	> 64	–	> 64	–	> 64
O=C(O)CN1C(=O)/C(=C/c2ccc3cc(OCc4ccc(C(F)(F)F)cc4)ccc3c2)SC1=S	64 (≈ 127 µM)	> 64	2 (≈ 3.97 µM)	4 (≈ 7.94 µM)	64 (≈ 127 µM)	> 64	2 (≈ 3.97 µM)	4 (≈ 7.94 µM)
O=C(O)CN1C(=O)CSC1=S [RHODANINE-3-ACETIC ACID]	–	> 64	–	> 64	–	> 64	–	> 64
O=C(O)CN1C(=O)/C(=C/c2ccc3cc(OCc4ccc(F)cc4)ccc3c2)SC1=S	4 (≈ 8.82 µM)	> 64	4 (≈ 8.82 µM)	4 (≈ 8.82 µM)	4 (≈ 8.82 µM)	> 64	2 (≈ 4.41 µM)	4 (≈ 8.82 µM)
O=C(O)CN1C(=O)/C(=C/c2ccc3cc(OCc4ccc(Cl)c(Cl)c4)ccc3c2)SC1=S	–	> 64	–	> 64	–	> 64	–	> 64
O=C(O)CN1C(=O)/C(=C/c2ccc3cc(OCc4ccc([N+](=O)[O-])cc4)ccc3c2)SC1=S	8 (≈ 16.6 µM)	> 64	4 (≈ 8.32 µM)	64 (≈ 133 µM)	4 (≈ 8.32 µM)	> 64	8 (≈ 16.6 µM)	32 (≈ 66.6 µM)
Cc1ccc(COc2ccc3cc(/C=C4\SC(=S)N(CC(=O)O)C4=O)ccc3c2)cc1C	–	> 64	–	> 64	–	> 64	–	> 64
O=C(O)CN1C(=O)/C(=C/c2ccc3cc(OCc4cccc(Br)c4)ccc3c2)SC1=S	> 64	> 64	64 (≈ 124 µM)	32 (≈ 62.2 µM)	> 64	> 64	64 (≈ 124 µM)	64 (≈ 124 µM)
O=C(O)CN1C(=O)/C(=C/c2ccc3cc(OCc4ccc(I)cc4)ccc3c2)SC1=S	–	> 64	–	> 64	–	> 64	–	> 64
COc1ccc(COc2ccc3cc(/C=C4\SC(=S)N(CC(=O)O)C4=O)ccc3c2)cc1OC	8 (≈ 16.1 µM)	> 64	8 (≈ 16.1 µM)	4 (≈ 8.07 µM)	8 (≈ 16.1 µM)	> 64	8 (≈ 16.1 µM)	8 (≈ 16.1 µM)
O=C(O)CN1C(=O)/C(=C/c2ccc3cc(OCc4ccccc4)ccc3c2)SC1=S	64 (≈ 147 µM)	> 64	64 (≈ 147 µM)	64 (≈ 147 µM)	64 (≈ 147 µM)	> 64	64 (≈ 147 µM)	64 (≈ 147 µM)
O=C(O)CN1C(=O)/C(=C/c2ccc3cc(OCc4ccc(Br)cc4)ccc3c2)SC1=S	4 (≈ 7.78 µM)	> 64	1 (≈ 1.94 µM)	2 (≈ 3.89 µM)	4 (≈ 7.78 µM)	> 64	1 (≈ 1.94 µM)	2 (≈ 3.89 µM)
Cc1ccc(COc2ccc3cc(/C=C4\SC(=S)N(CC(=O)O)C4=O)ccc3c2)cc1	4 (≈ 8.9 µM)	> 64	2 (≈ 4.45 µM)	2 (≈ 4.45 µM)	8 (≈ 17.8 µM)	> 64	4 (≈ 8.9 µM)	4 (≈ 8.9 µM)
O=C(O)CN1C(=O)/C(=C/c2ccc3cc(OCc4ccc(Cl)cc4)ccc3c2)SC1=S	4 (≈ 8.51 µM)	> 64	2 (≈ 4.26 µM)	2 (≈ 4.26 µM)	4 (≈ 8.51 µM)	> 64	2 (≈ 4.26 µM)	4 (≈ 8.51 µM)
O=C(O)CN1C(=O)/C(=C/c2ccc3cc(OCc4ccc(Cl)cc4Cl)ccc3c2)SC1=S	–	> 64	–	> 64	–	> 64	–	> 64
